# Laboratory results: PMC12543159, “Characterization and ligand binding properties of a fatty acid- and retinol- binding protein (Hp-FAR-2) from Heligmosomoides polygyrus” (PLOS Neglected Tropical Diseases, 2025)
# What was measured:
# Type in all cases: binding
# Hp-FAR-2 [1] = target: T1, Hp-FAR-2 (Heligmosomoides polygyrus, UniProt A0A183GLK6); test: DAUDA displacement fluorescence competition ([…] excess, […])
# T1 construct: mature Hp-FAR-2, amino acids 18–180, N-terminal 6-His-tag
# Hp-FAR-2 [2] = target: T1, Hp-FAR-2; test: DAUDA displacement fluorescence competition ([…] and […])
# Hp-FAR-2 [3] = target: T1, Hp-FAR-2; test: fluorescence titration of DAUDA with purified Hp-FAR-2 (blue shift)
# Hp-FAR-2 [4] = target: T1, Hp-FAR-2; test: retinol fluorescence titration with purified Hp-FAR-2
# T1 sequence (A0A183GLK6 entry or part of it): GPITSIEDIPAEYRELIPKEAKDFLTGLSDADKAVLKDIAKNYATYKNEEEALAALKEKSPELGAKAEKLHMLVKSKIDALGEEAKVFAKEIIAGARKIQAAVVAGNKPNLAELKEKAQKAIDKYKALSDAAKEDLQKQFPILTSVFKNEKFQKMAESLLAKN
SMILES,"DAUDA displacement fluorescence competition (10-fold excess, 10 μM) (Hp-FAR-2 [1])",DAUDA displacement fluorescence competition (1:1 and 1:10) (Hp-FAR-2 [2]),also measured
"CCCCC/C=C\C/C=C\C/C=C\C/C=C\CCCC(=O)O [AA, arachidonic acid]",All fatty acids except α-linolenic acid significantly displaced DAUDA compared to DAUDA alone,,
"CCCCCCCCCCCCCCCC(=O)O [PA, palmitic acid]",All fatty acids except α-linolenic acid significantly displaced DAUDA compared to DAUDA alone,,
"CC/C=C\C/C=C\C/C=C\C/C=C\C/C=C\CCCC(=O)O [EPA, eicosapentaenoic acid]",All fatty acids except α-linolenic acid significantly displaced DAUDA compared to DAUDA alone,,
"CCCCC/C=C\C/C=C\CCCCCCCC(=O)O [LA, linoleic acid]",,"Oleic acid, linoleic acid, and docosahexaenoic acid all significantly displaced DAUDA",
"CC/C=C\C/C=C\C/C=C\C/C=C\C/C=C\C/C=C\CCC(=O)O [DHA, docosahexaenoic acid]",,"Oleic acid, linoleic acid, and docosahexaenoic acid all significantly displaced DAUDA",
CN(C)c1cccc2c(S(=O)(=O)NCCCCCCCCCCC(=O)O)cccc12 [DAUDA],,,Kd (Hp-FAR-2 [3]): 3.16 µM
CC1=C(/C=C/C(C)=C/C=C/C(C)=C/CO)C(C)(C)CCC1 [retinol],,,Kd (Hp-FAR-2 [4]): 3.24 µM
"CCCCCCCC/C=C\CCCCCCCC(=O)O [OA, oleic acid]",,"Oleic acid, linoleic acid, and docosahexaenoic acid all significantly displaced DAUDA",
